Measured values from patent US20230136562A1, “SPIROUREA DERIVATIVES” (Idorsia Pharmaceuticals Ltd, priority 2020, published 2023).
Read-outs that look alike come from different tables or passages of the source.

Test system: primary neuronal cultures from embryonic rat brains
Experiment: Rat oscillation assay (FLIPR, neuronal calcium oscillations)
Format: cell-based
Details: Rattus norvegicus
How it was run: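 Cortical neurons from E18 Wistar rat embryos, cultured 8–10 days at high density, loaded with 1 μM Fluo-8 AM; calcium oscillations recorded by FLIPR once per second in Mg-free HBSS with 2 mM CaCl2, 20 mM HEPES, pH 7.4. Two acquisitions ("Acute", 500 sec, compound added at 250 sec; "20 min"), ± Kv7 blocker XE-991.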

[1] = 20 min, AUC of fluorescence measured 20 min after compound addition, read-out: FLIPR: IC50 [nM] 20 min
[2] = Acute phase, ratio of AUC fluorescence before and after compound addition, read-out: FLIPR: IC50 [nM] acute

| SMILES | IC50 [1] | IC50 [2] |
| --- | --- | --- |
| CNC(=O)C(NC(=O)NC1CC2(CCC2)C1)c1cccc(C(F)(F)F)c1 (racemic) [Example 63, (±)-N-Methyl-2-(3-spiro[3.3]hept-2-yl-ureido)-2-(3-trifluoromethyl-phenyl)-acetamide] | 92 nM | 46 nM |
| O=C(NCc1cc(C(F)(F)F)ccc1F)NC1CC2(CC2)C1 [Example 151, 1-(2-Fluoro-5-trifluoromethyl-benzyl)-3-spiro[2.3]hex-5-yl-urea] | 419 nM | 269 nM |
| O=C(NC1CC2(CCC2)C1)NC(CO)c1cccc(OCC(F)(F)F)c1 (racemic) [Example 87, (±)-1-{2-Hydroxy-1-[3-(2,2,2-trifluoro-ethoxy)-phenyl]-ethyl}-3-spiro[3.3]hept-2-yl-urea] | 12 nM | 21 nM |
| COCC(NC(=O)NC1CC2(CCC2)C1)c1cccc(C(F)(F)F)c1 (racemic) [Example 9, (±)-1-[2-Methoxy-1-(3-trifluoromethyl-phenyl)-ethyl]-3-spiro[3.3]hept-2-yl-urea] | 2.1 nM | 5.1 nM |
| CC(NC(=O)NC1CC2(CC2)C1)c1cccc(OC(F)(F)F)c1 (racemic) [Example 141, (±)-1-Spiro[2.3]hex-5-yl-3-[1-(3-trifluoromethoxy-phenyl)-ethyl]-urea] | 26 nM | 22 nM |
| O=C(NCc1ccc(F)c(C(F)(F)F)c1)NC1CC2(CC2)C1 [Example 148, 1-(4-Fluoro-3-trifluoromethyl-benzyl)-3-spiro[2.3]hex-5-yl-urea] | 355 nM | 312 nM |
| O=C(NCc1ccc(F)c(C(F)(F)F)c1)NC1CC2(CCC2)C1 [Example 17, 1-(4-Fluoro-3-trifluoromethyl-benzyl)-3-spiro[3.3]hept-2-yl-urea] | 145 nM | 141 nM |
| O=C(NCc1cccc(OC(F)(F)F)c1)NC1CC2(CC2)C1 [Example 156, 1-Spiro[2.3]hex-5-yl-3-(3-trifluoromethoxy-benzyl)-urea] | 83 nM | 60 nM |
| O=C(NC1CC2(CCC2)C1)NC(CO)c1cccc(C(F)(F)F)c1 (racemic) [Example 76, (±)-1-[2-Hydroxy-1-(3-trifluoromethyl-phenyl)-ethyl]-3-spiro[3.3]hept-2-yl-urea] | 17 nM | 19 nM |
| CC(NC(=O)NC1CC2(CCC2)C1)c1ccc2c(c1)OC(F)(F)O2 (racemic) [Example 65, (±)-1-[1-(2,2-Difluoro-benzo[1,3]dioxol-5-yl)-ethyl]-3-spiro[3.3]hept-2-yl-urea] | 10 nM | 6.7 nM |
| Cc1cc(OCC(F)(F)F)cc(C(C)NC(=O)NC2CC3(CCC3)C2)c1 (racemic) [Example 32, (±)-1-{1-[3-Methyl-5-(2,2,2-trifluoro-ethoxy)-phenyl]-ethyl}-3-spiro[3.3]hept-2-yl-urea] | 14 nM | 24 nM |
| O=C(NC1CC2(CCC2)C1)N[C@H](CO)c1cccc(C(F)(F)F)c1 (single isomer, unassigned) [Example 185] | 753 nM | 936 nM |
| CC(NC(=O)NC1CC2(CCC2)C1)c1cccc(OCC(F)(F)F)c1 (racemic) [Example 90, (±)-1-Spiro[3.3]hept-2-yl-3-{1-[3-(2,2,2-trifluoro-ethoxy)-phenyl]-ethyl}-urea] | 2.7 nM | 4 nM |
| CC(Oc1cccc(C2(NC(=O)NC3CC4(CC4)C3)CC2)c1)C(F)(F)F (racemic) [Example 135, (±)-1-Spiro[2.3]hex-5-yl-3-{1-[3-(2,2,2-trifluoro-1-methyl-ethoxy)-phenyl]-cyclopropyl}-urea] | 115 nM | 133 nM |
| CC(NC(=O)NC1CC2(CC2)C1)c1cccc(OC(F)F)c1 (racemic) [Example 124, (±)-1-[1-(3-Difluoromethoxy-phenyl)-ethyl]-3-spiro[2.3]hex-5-yl-urea] | 280 nM | 69 nM |
| CCOCCC(NC(=O)NC1CC2(CCC2)C1)c1cccc(C(F)(F)F)c1 (racemic) [Example 73, (±)-1-[3-Ethoxy-1-(3-trifluoromethyl-phenyl)-propyl]-3-spiro[3.3]hept-2-yl-urea] | 244 nM | 305 nM |
| CC(NC(=O)NC1CC2(CC(I)C2)C1)c1ccnc(OC(F)F)c1 (racemic) [Example 166, (±)-1-[1-(2-Difluoromethoxy-pyridin-4-yl)-ethyl]-3-(6-iodo-spiro[3.3]hept-2-yl)-urea] | 474 nM | 889 nM |
| O=C(NCc1cccc(C(F)(F)F)c1)NC1CC2(C1)CC2(F)F (centres unmarked) [Example 3, 1-(1,1-Difluoro-spiro[2.3]hex-5-yl)-3-(3-trifluoromethyl-benzyl)-urea] | 186 nM | 122 nM |
| O=C(NCc1cccc(OCC(F)(F)F)c1)NC1CC2(CC2)C1 [Example 157, 1-Spiro[2.3]hex-5-yl-3-[3-(2,2,2-trifluoro-ethoxy)-benzyl]-urea] | 156 nM | 74 nM |
| O=C(NCc1cc(C(F)(F)F)ccc1F)NC1CC2(CCC2)C1 [Example 16, 1-(2-Fluoro-5-trifluoromethyl-benzyl)-3-spiro[3.3]hept-2-yl-urea] | 196 nM | 224 nM |
| CSCCC(NC(=O)NC1CC2(CCC2)C1)c1cccc(C(F)(F)F)c1 (racemic) [Example 75, (±)-1-[3-Methylsulfanyl-1-(3-trifluoromethyl-phenyl)-propyl]-3-spiro[3.3]hept-2-yl-urea] | 129 nM | 106 nM |
| CC(NC(=O)NC1CC2(CCC2)C1)c1cc(OCC(F)(F)F)ncn1 (racemic) [Example 61, (±)-1-Spiro[3.3]hept-2-yl-3-{1-[6-(2,2,2-trifluoro-ethoxy)-pyrimidin-4-yl]-ethyl}-urea] | 25 nM | 14 nM |
| O=C(NC1CC2(CCC2)C1)N[C@@H](CO)c1cccc(C(F)(F)F)c1 (single isomer, unassigned) [Example 184] | 5.7 nM | 8.8 nM |
| C=CCC(NC(=O)NC1CC2(CCC2)C1)c1cccc(C(F)(F)F)c1 (racemic) [Example 80, (±)-1-Spiro[3.3]hept-2-yl-3-[1-(3-trifluoromethyl-phenyl)-but-3-enyl]-urea] | 14 nM | 13 nM |
| CC(NC(=O)NC1CC2(CCC2)C1)c1cccc(OC(F)(F)F)c1 (centres unmarked) [Example 119, 1-Spiro[3.3]hept-2-yl-3-[1-(3-trifluoromethoxy-phenyl)-ethyl]-urea] | 12 nM | 10 nM |
| CC(NC(=O)NC1CC2(CCC2)C1)c1cc(OCC(F)(F)F)ccc1F (racemic) [Example 99, (±)-1-{1-[2-Fluoro-5-(2,2,2-trifluoro-ethoxy)-phenyl]-ethyl}-3-spiro[3.3]hept-2-yl-urea] | 20 nM | 32 nM |
| CCOCCC(NC(=O)NC1CC2(CCC2)C1)c1ccnc(OCC(F)(F)F)c1 (racemic) [Example 77, (±)-1-{3-Ethoxy-1-[2-(2,2,2-trifluoro-ethoxy)-pyridin-4-yl]-propyl}-3-spiro[3.3]hept-2-yl-urea] | 226 nM | 279 nM |
| O=C(NCc1cccc(C(F)(F)F)c1)NC1CC2(C1)CC(F)(F)C2 [Example 6, 1-(6,6-Difluoro-spiro[3.3]hept-2-yl)-3-(3-trifluoromethyl-benzyl)-urea] | 112 nM | 62 nM |
